Results taken from the supplement of paper PMC10307832.

Columns and labels:
Assay in all cases: relative viability (nuclei count vs DMSO), 5 days (fraction); higher = more cells survive
[1] = compound: Cc1ccc2nc(NCCN)c3ncc(C)n3c2c1 + CC1(C)CCC(c2ccc(Cl)cc2)=C(CN2CCN(c3ccc(C(=O)NS(=O)(=O)c4ccc(N[C@H](CCN5CCOCC5)CSc5ccccc5)c(S(=O)(=O)C(F)(F)F)c4)cc3)CC2)C1 [Navitoclax] (partner 0.5 µM)
Method in brief: (§1)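 Values are medians from duplicate plates. Each reflects relative viability, defined as the nuclei count of treated wells over that of vehicle wells. Lung cancer cell lines in 1536-well plates were pin-tool dosed one day after seeding with one drug alone or with a fixed anchor-drug dose plus five library-drug doses (not always all listed) in √10 steps, then fixed, stained and imaged at 4× after 5 days.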

Salubrinal + Phenformin = compound: O=C(/C=C/c1ccccc1)NC(NC(=S)Nc1cccc2cccnc12)C(Cl)(Cl)Cl [Salubrinal] + N=C(N)NC(=N)NCCc1ccccc1 [Phenformin] (partner 250 µM)
Method in brief: as §1

[2] = compound: Cc1ccc2nc(NCCN)c3ncc(C)n3c2c1
Method in brief: (§2)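 Five library-drug doses spaced by √10 were pinned onto vehicle-anchored 1536-well plates of lung cancer cell lines that had been kept overnight at 37 °C. Cells went 5 days without medium change, then were fixed, permeabilised and Hoechst-stained together, imaged at 4× and counted by MetaXpress. Viability is the ratio of treated-well to vehicle-well nuclei, taken as a median over plates. Plates required control CV below 25% and at least one doubling.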

Salubrinal = compound: O=C(/C=C/c1ccccc1)NC(NC(=S)Nc1cccc2cccnc12)C(Cl)(Cl)Cl [Salubrinal]
Method in brief: as §2

Cell Line | relative viability ([1]; first compound 0.04 µM) | relative viability ([1]; first compound 0.1265 µM) | relative viability ([1]; first compound 0.4 µM) | relative viability ([1]; first compound 1.265 µM) | relative viability ([1]; first compound 4 µM) | relative viability (Salubrinal + Phenformin; first compound 0.08 µM) | relative viability (Salubrinal + Phenformin; first compound 0.253 µM) | relative viability (Salubrinal + Phenformin; first compound 0.8 µM) | relative viability (Salubrinal + Phenformin; first compound 2.53 µM) | relative viability (Salubrinal + Phenformin; first compound 8 µM) | relative viability ([2]; 0.04 µM) | relative viability ([2]; 0.1265 µM) | relative viability ([2]; 0.4 µM) | relative viability ([2]; 1.265 µM) | relative viability ([2]; 4 µM) | relative viability (Salubrinal; 0.08 µM) | relative viability (Salubrinal; 0.253 µM) | relative viability (Salubrinal; 0.8 µM) | relative viability (Salubrinal; 2.53 µM) | relative viability (Salubrinal; 8 µM)
NCI-H2009 | 1.19 | 1.08 | 1.17 | 1.17 | 1.09 | 0.534 | 0.492 | 0.489 | 0.454 | 0.411 | 1.04 | 0.982 | 1.03 | 1.02 | 0.947 | 1.03 | 1.03 | 1.02 | 0.993 | 0.906
SK-MES-1 | 1.26 | 1.33 | 1.14 | 1.13 | 1.17 | 0.703 | 0.64 | 0.668 | 0.672 | 0.605 | 1.05 | 1.01 | 0.984 | 1.01 | 0.992 | 1.14 | 0.997 | 1.09 | 0.988 | 0.945
NCI-H2405 | 0.849 | 0.905 | 0.936 | 0.718 | 0.725 | 0.42 | 0.387 | 0.441 | 0.329 | 0.408 | 1.02 | 1.01 | 1.03 | 1.05 | 0.915 | 1.01 | 1.03 | 1.09 | 1.03 | 0.966
NCI-H1755 | 1.04 | 0.971 | 0.997 | 1.02 | 0.98 | 0.639 | 0.676 | 0.652 | 0.625 | 0.552 | 1.07 | 0.979 | 0.964 | 0.992 | 0.962 | 1.07 | 1.04 | 1.06 | 0.959 | 0.968
HCC-78 | 0.919 | 0.8 | 0.778 | 0.757 | 0.689 | 0.736 | 0.647 | 0.898 | 0.75 | 0.679 | 1.08 | 0.979 | 0.919 | 0.943 | 0.826 | 1.03 | 0.937 | 1.27 | 0.949 | 0.891
LOU-NH91 | 0.684 | 0.687 | 0.724 | 0.672 | 0.65 | 0.813 | 0.693 | 0.739 | 0.583 | 0.663 | 1.01 | 0.961 | 0.949 | 0.979 | 0.901 | 0.985 | 0.976 | 1.04 | 0.983 | 0.937
NCI-H3122 | 1.03 | 1.03 | 1.06 | 1 | 1.1 | 0.42 | 0.371 | 0.412 | 0.367 | 0.356 | 0.998 | 0.988 | 0.999 | 1.06 | 1.01 | 1.08 | 1 | 1.09 | 1.05 | 1.01
HCC-827 | 1.03 | 0.969 | 1.03 | 1.05 | 0.984 | 0.408 | 0.521 | 0.356 | 0.392 | 0.341 | 1.07 | 1.04 | 1.02 | 1.04 | 1.05 | 1.04 | 1.07 | 1.01 | 1.01 | 1.03
SK-LU-1 | 1.02 | 0.898 | 0.812 | 0.769 | 0.778 | 0.647 | 0.4 | 0.594 | 0.555 | 0.435 | 1.06 | 1 | 1.03 | 1.05 | 0.976 | 1.11 | 0.905 | 1.19 | 1.11 | 0.878
NCI-H1975 | 1.06 | 1.12 | 1.08 | 0.952 | 0.863 | 0.465 | 0.359 | 0.434 | 0.427 | 0.375 | 1 | 0.951 | 0.934 | 0.85 | 0.869 | 0.93 | 0.82 | 1.01 | 1.04 | 0.935
NCI-H1651 | 1.02 | 1.02 | 1.19 | 1.18 | 0.955 | 0.311 | 0.237 | 0.345 | 0.296 | 0.267 | 1.02 | 0.95 | 0.991 | 0.971 | 0.917 | 1.13 | 0.905 | 1.13 | 0.964 | 0.988
NCI-H441 | 0.56 | 0.684 | 1.03 | 0.401 | 0.635 | 0.939 | 0.855 | 0.892 | 0.755 | 0.72 | 1.1 | 1.05 | 1.09 | 1.11 | 0.964 | 1.25 | 1.02 | 1.34 | 1.03 | 0.784
LCLC-97TM1 | 0.57 | 0.444 | 0.39 | 0.392 | 0.487 | 0.388 | 0.413 | 0.435 | 0.462 | 0.488 | 1.07 | 0.934 | 0.978 | 1.04 | 0.899 | 1.07 | 1.06 | 1.21 | 0.992 | 1.11
NCI-H727 | 0.379 | 0.475 | 0.41 | 0.238 | 0.413 | 0.41 | 0.461 | 0.491 | 0.504 | 0.688 | 0.969 | 0.734 | 1.14 | 0.949 | 0.994 | 1.01 | 1.45 | 1.11 | 0.827 | 0.797
NCI-H1355 | 0.909 | 0.942 | 0.924 | 0.9 | 0.806 | 0.424 | 0.426 | 0.475 | 0.456 | 0.44 | 1.05 | 0.983 | 0.938 | 0.995 | 0.935 | 1.11 | 0.941 | 1.03 | 0.979 | 0.955
HOP-62 | 0.956 | 1.05 | 0.859 | 1 | 0.954 | 0.85 | 0.491 | 0.799 | 0.702 | 0.53 | 0.97 | 1 | 0.827 | 1.04 | 0.984 | 1.01 | 0.981 | 1.11 | 1.06 | 0.98
NCI-H2085 | 1.27 | 1.12 | 1.08 | 1.06 | 1.08 | 0.68 | 0.634 | 0.682 | 0.749 | 0.665 | 1.03 | 1 | 0.982 | 1.04 | 1.01 | 1.08 | 0.976 | 1.02 | 0.947 | 1.01
